Reference: patent publication US9006283B2, “Methods of modifying amyloid β oligomers using non-peptidic compounds” (Acumen Pharmaceuticals, Inc., priority 2007, dated 2015)

Columns and labels:
[1] = target: Aβ1-42 monomer assembly into Aβ oligomers (ADDLs) (Homo sapiens (Human), UniProt P05067); test: FRET assay of Aβ1-42 oligomer (ADDL) assembly inhibition; format: biochemical
Excerpt: Fluorescence (or Förster) Resonance Energy Transfer (FRET) is a distance-dependent, non-radiative transfer of energy in which the de-excitation of one fluorophore (donor) is coupled to excitation of another fluorophore (acceptor). FRET occurs if (1) the quantum of energy emitted by a donor fluorophore corresponds to an acceptor fluorophore's excitation energy, (2) the orientations of donor and acceptor transition dipoles are nearly parallel and (3) the donor fluorescent emission spectrum overlaps the acceptor absorption spectrum.
In this assay, assembly of Aβ1-42 oligomer formation is monitored by FRET using N-terminal conjugates of fluorescein-Aβ1-42 as both the donor and acceptor fluorophore (fluorescein-fluorescein Ro˜45 Å). Aβ1-42 monomers assembling into oligomeric species results in a decrease of fluorescence as the fluorescein labeled Aβ1-42 peptides become proximal to each other and FRET efficiency increases. Inhibition of Aβ1-42 assembly is observed as the absence or attenuation of fluorescein quenching.
FRET and FP assays are performed in 384-well Corning Non-Binding Surface, black, opaque microtiter plates, and the assay buffer consists of 50 mM MOPS-Tris (pH 8.0) with 100 mM MgCl2. […] ADDL assembly is monitored on a Tecan GENios Pro plate reader, exciting at a wavelength of 485 nm and detecting emission at a wavelength of 515 nm. […]

[2] = cited from earlier work
[3] = cited from earlier work; remark: listed apart in the source

Sequence of Aβ1-42 monomer assembly into Aβ oligomers (ADDLs) (P05067 672-713): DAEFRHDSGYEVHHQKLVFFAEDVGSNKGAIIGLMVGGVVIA

NCCCS(=O)(=O)O [Alzhemed, 3-amino-1-propanesulfonic acid]
inhibition of Aβ1-42 monomer assembly into Aβ oligomers ([1]; FIG. 2, standard FRET assay conditions of Example 1): inability | cognitive decline ([2]; 20 month open-label extension of Phase II trial, some patients with mild AD): slowed cognitive decline | efficacy ([2]; blinded phase of the study): no efficacy was observed

CCOC(=O)c1c(NC(=O)C(=O)N/N=C/c2ccccc2O)sc2c1CCC(C)C2 (stereo not drawn) [Compound 4, 2-{[1-(2-Hydroxyphenyl)-meth-(E)-ylidene-hydrazinooxalyl]-amino}-6-methyl-4,5,6,7-tetrahydro-benzo[b]thiophene-3-carboxylic acid ethyl ester]
inhibition of Aβ1-42 oligomer assembly ([1]; FIG. 1, Test Compound A ranging from 0.05 to 3 mM (0.05 to 3 μM in figure legend)): dose dependent inhibition

Oc1c(I)cc(Cl)c2cccnc12 [Clioquinol]
patients' cognitive ability ([3]; compared to untreated patients): stabilize | Aβ1-42 levels in plasma ([3]; patients' plasma): lower
